Where “and” joins values, the source holds several entries; their conditions need not be identical. Equal values may be shown once.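 Step 1: Grow cells in 96-well plates. Step 2: Expose to compound for 48 hours at 5 concentrations. Step 3: Interpolate endpoints linearly; if unreached, use highest concentration. GI50 marks 50% less growth. TGI is the concentration that stops growth completely.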
Columns and labels:
Experiment in all cases: inhibition of tumour cell growth, NCI panel, 48 h
HT29 colon = test system: HT29 colon
SNB-75 CNS = test system: SNB-75 CNS
786-0 renal = test system: 786-0 renal
SK-MEL-5 melanoma = test system: SK-MEL-5 melanoma
UO-31 renal = test system: UO-31 renal
MALME-3M melanoma = test system: MALME-3M melanoma
DLD-1 colon = test system: DLD-1 colon
DMS 273 small cell lung = test system: DMS 273 small cell lung
SW-620 colon = test system: SW-620 colon
MDA-MB-231 breast = test system: MDA-MB-231 breast

Structure (SMILES) | TGI (HT29 colon) | TGI (SNB-75 CNS) | TGI (786-0 renal) | TGI (SK-MEL-5 melanoma) | TGI (UO-31 renal) | TGI (MALME-3M melanoma) | TGI (DLD-1 colon) | TGI (DMS 273 small cell lung) | TGI (SW-620 colon) | GI50 (HT29 colon) | GI50 (SNB-75 CNS) | GI50 (786-0 renal) | GI50 (SK-MEL-5 melanoma) | GI50 (SW-620 colon) | GI50 (MDA-MB-231 breast) | TGI (MDA-MB-231 breast) | GI50 (UO-31 renal) | GI50 (MALME-3M melanoma) | GI50 (DLD-1 colon)
CC1=C(C(=O)Nc2cccc(Cl)c2)C(c2ccc([N+](=O)[O-])cc2)C(C(=O)Nc2cccc(Cl)c2)=C(C)N1 | 35 µM | 91.1 µM | 69.6 µM | 33.8 µM | 65.4 µM | 59.5 µM | > 100 µM | – | – | – | – | – | – | – | – | – | – | – | –
O=c1c2cc(Br)ccc2nc(-c2ccccc2Cl)n1NCC1(O)OCC(O)C(O)C1O (stereo not given) | > 100 µM | > 100 µM | > 100 µM | > 100 µM | > 100 µM | > 100 µM | – | > 100 µM | > 100 µM | – | – | – | – | – | – | – | – | – | –
CC(C)[C@@]12C[C@@H](OC(=O)COC(=O)/C=C/c3ccccc3)[C@@](C)(O1)[C@@H]1CC[C@@H](C)[C@H]1[C@@H]2OC(=O)/C=C/c1ccccc1 | > 100 µM | > 100 µM | > 100 µM | > 100 µM | 0.216 µM | > 100 µM | – | – | > 100 µM | > 100 µM | > 100 µM | > 27.1 µM | > 100 µM | > 100 µM | > 100 µM | > 100 µM | 0.0656 µM | > 100 µM | –
CCc1cccc2c3c(sc12)C(c1ccc(Cl)cc1)C(C#N)=C(N)O3 (stereo not given) | 3.61 µM | 0.718 µM | 14.7 µM | 12 µM | 13.4 µM | 9.9 µM | – | – | 12.2 µM | 0.457 µM | 0.195 µM | 0.94 µM | 0.898 µM | 0.45 µM | 1.56 µM | 7.72 µM | 0.691 µM | 0.712 µM | –
CN1CCN(c2nc(NCCCCNc3ccnc4cc(Cl)ccc34)c3ccccc3n2)CC1 | 5.49 µM | 10 µM | 3.26 µM | 3.19 µM | 3.54 µM | 3.61 µM | – | – | 18.2 µM | 2 µM | 2.16 µM | 1.65 µM | 1.78 µM | 4.42 µM | 2.14 µM | 5.93 µM | 1.65 µM | 1.93 µM | –
N#C/C(=C1\NN=C(N)C(c2ccc(Cl)cc2)=C1O)c1ccc(Cl)cc1 | > 100 µM | > 100 µM | > 100 µM | – | > 100 µM | > 100 µM | > 100 µM | > 100 µM | > 100 µM | – | – | – | – | – | – | – | – | – | –
C=C1CC2(C[C@@H](c3ccccc3)O[C@@H](c3ccccc3)C2)OC1=O (stereo not given in full) | 8.97 µM | 14.3 µM | 5.63 µM | 8.83 µM | 18.4 µM | 4.28 µM | – | – | 3.95 µM | – | – | – | – | – | – | 4.58 µM | – | – | –
O=c1[nH]nc2ccccc2c1Cl | 23.6 µM | 47.1 µM | 28.4 µM | – | 28.2 µM | 31 µM | 22.8 µM | 35.5 µM | 34.2 µM | – | – | – | – | – | – | – | – | – | –
COC(C(=O)C(O)C(C)O)C1Cc2cc3cc(OC4CC(OC(C)=O)C(OC5CC(O)C(OC)C(C)O5)C(C)O4)cc(O)c3c(O)c2C(=O)C1OC1CC(OC2CC(OC3CC(C)(O)C(OC(=O)C(C)C)C(C)O3)C(O)C(C)O2)C(O)C(C)O1 (stereo not given) | 0.991 µM and 3.48 µM and 2.1 µM | 0.0626 µM and 0.0109 µM and 0.0075 µM | 0.826 µM | – | 4.1 µM and 5.22 µM | – | 8.61 µM and > 27.3 µM | – | 3.98 µM and 2.22 µM | – | 0.00157 µM | 0.0763 µM and 0.0168 µM | 0.0094 µM and 0.00174 µM | – | – | 0.551 µM | 0.399 µM and 0.46 µM | – | 0.298 µM and 0.0325 µM
Cn1ccnc1C(=O)/C=C/c1ccc(CC(=O)Nc2ccc(S(F)(F)(F)(F)F)cc2)cc1 | 7.2 µM | 3.88 µM | 3 µM | 5.48 µM | 4.35 µM | 6.65 µM | – | – | 4.09 µM | 3.25 µM | 1.83 µM | 0.788 µM | 3.02 µM | 1.03 µM | 2.91 µM | 6.66 µM | 2.22 µM | 2.95 µM | –
CC1CC2C(=O)N(c3ccccc3)C(=O)C2c2c1c1ccccc1n2Cc1ccccc1 (stereo not given) | > 100 µM | – | > 100 µM | > 100 µM | > 100 µM | > 100 µM | > 100 µM | – | > 100 µM | – | – | – | – | – | – | – | – | – | –
CC(CN1CCN(C)CC1)CN1c2ccccc2Sc2ccc(C(F)(F)F)cc21 (stereo not given) | 3.27 µM | 7.85 µM | 3.12 µM | 2.99 µM | 6.4 µM | 3.72 µM | – | – | 3.67 µM | 1.8 µM | 2.21 µM | 1.66 µM | 1.61 µM | 1.83 µM | 1.36 µM | 2.82 µM | 1.8 µM | 1.72 µM | –
COc1ccn2c(C(C)=O)cc(C(=O)c3ccc4c(c3)Sc3ccccc3N4)c2c1 | 0.351 µM | > 100 µM | 55.1 µM | 0.449 µM | > 100 µM | > 100 µM | – | – | > 100 µM | 0.0918 µM | 0.0714 µM | 0.145 µM | 0.104 µM | 0.148 µM | 0.155 µM | 10.6 µM | 0.476 µM | > 27.8 µM | –
Cc1nn(-c2ccccc2)c2c1CC(=O)Nc1ccccc1-2 | – | – | > 100 µM | 45.2 µM | > 100 µM | > 100 µM | – | – | > 100 µM | 0.0906 µM | 0.21 µM | 0.57 µM | 0.0879 µM | 0.152 µM | 0.578 µM | > 100 µM | 1.11 µM | 0.432 µM and 0.0872 µM | –
CS(=O)(=O)c1ccc(-c2cnc(N)c(C(=O)Nc3ccccc3)n2)cc1 | > 100 µM | > 100 µM | > 100 µM | > 100 µM | > 42.8 µM | > 100 µM | – | – | > 100 µM | 7.5 µM | 7.22 µM | 3.71 µM | 28.7 µM | > 100 µM | > 67.6 µM | > 100 µM | 5.45 µM | > 100 µM | –
OCC(O)C(OC1OC(CO)C(O)C(O)C1O)c1nn(-c2ccccc2)c2nc3cc(Cl)c(Cl)cc3cc12 (stereo not given) | > 100 µM | > 100 µM | > 100 µM | – | > 100 µM | > 100 µM | > 100 µM | – | – | – | – | – | – | – | – | – | – | – | –
CN(C)c1ccc(-c2cc(-c3ccc(Nc4nc(Nc5ccccc5)nc(Nc5ccc(Cl)cc5)n4)cc3)nc(N)n2)cc1 | 12.7 µM | 37.7 µM | 46 µM | 11.6 µM | > 100 µM | 49.2 µM | – | – | 21.8 µM | 3.27 µM | 3.27 µM | 6.32 µM | 1.89 µM | 6.86 µM | 5.64 µM | 23.4 µM | 2.69 µM | 4.07 µM | –
C/C(=C\c1ccn(-c2ccc(N)c(F)c2)n1)[C@@H]1C[C@@H]2O[C@]2(C)CCC[C@H](C)[C@H](O)[C@@H](C)C(=O)C(C)(C)[C@@H](O)CC(=O)O1 | > 15.9 µM | 0.0725 µM | > 50 µM | 6.54 µM | > 50 µM | > 50 µM | – | – | > 50 µM | 0.00756 µM | < 0.005 µM | 0.0253 µM | 0.00882 µM | 0.0103 µM | 0.0695 µM | > 50 µM | 0.0982 µM | 0.0217 µM | –
C=CCNCCCN1C(=O)c2ccc3c4c(ccc(c24)C1=O)C(=O)N(CCCNCC=C)C3=O | 0.499 µM | 2.23 µM | 4.7 µM | 0.395 µM | 2.29 µM | 0.617 µM | – | – | 1.51 µM | 0.157 µM | 0.999 µM | 0.831 µM | 0.182 µM | 0.265 µM | 0.681 µM | 5.91 µM | 0.327 µM | 0.258 µM | –
COc1ccc(C(=O)/C=C/c2c(C(F)(F)F)nc3sccn23)cc1OC | > 100 µM | > 100 µM | > 100 µM | > 100 µM | > 100 µM | > 100 µM | – | – | > 100 µM | 2.01 µM | 6.87 µM | 5.67 µM | 4.2 µM | 1.49 µM | 5.91 µM | > 100 µM | 8.47 µM | 5.92 µM | –
O=C1/C(=C/c2ccccc2F)CNC/C1=C\c1ccccc1F | 1.17 µM and 0.543 µM | 4.74 µM and 4.33 µM | 0.505 µM and 2.15 µM | 2.85 µM and 3.05 µM | 1.8 µM and 2.05 µM | 6.38 µM and 4.51 µM | – | – | 3.49 µM and 0.647 µM | 0.261 µM and 0.242 µM | 2 µM and 1.54 µM | 0.233 µM and 0.739 µM | 1.22 µM and 1.59 µM | 0.236 µM and 0.245 µM | 1.18 µM and 0.653 µM | 3.17 µM and 2.36 µM | 0.567 µM and 0.753 µM | 2.26 µM and 1.83 µM | –
COc1cc(C(O)c2nc3ccccc3s2)cc(OC)c1OC (stereo not given) | > 100 µM | > 100 µM | > 100 µM | 79.5 µM | > 100 µM | > 100 µM | – | – | > 100 µM | > 100 µM | 33.2 µM | > 100 µM | 7.35 µM | > 100 µM | 58.7 µM | > 100 µM | 6.2 µM | 21.4 µM | –
C[C@H]1[C@H](C)CC[C@]2(C(=O)N3CCN(C)CC3)CC[C@]3(C)C(=CC[C@@H]4[C@@]5(C)C/C(=C/c6cccnc6)C(=O)C(C)(C)[C@@H]5CC[C@]43C)[C@H]12 | 2.67 µM | 2.34 µM | 2 µM | 2.54 µM | 2.16 µM | 2.45 µM | – | – | 2.51 µM | 0.926 µM | 1.08 µM | 0.67 µM | 1.14 µM | 0.924 µM | 0.943 µM | 2.25 µM | 0.775 µM | 1.08 µM | –
NC(=O)c1oc([N+](=O)[O-])c(-c2ccccc2)c1-c1ccccc1 | > 100 µM | > 100 µM | 89.7 µM | 14.2 µM | 52.2 µM | 16 µM | – | – | > 100 µM | – | – | – | – | – | – | 38.6 µM | – | – | –

From PubChem BioAssay (NCI)
